Literature values as cited in US20260284079A1, “LIPID PRODRUGS OF ALLOPR[…] USES THEREOF” (Seaport Therapeutics, Inc., priority 2023, published 2026).

How the values were obtained:
salivary cortisol levels = conditions: literature; cited from earlier work
[1] = due to extensive first-pass metabolism; cited from earlier work

| SMILES | blunting of increase in salivary cortisol levels following a TSST (salivary cortisol levels) | oral bioavailability [1] |
| --- | --- | --- |
| CCNC1=Nc2ccc(Cl)cc2C(C)(c2ccccc2)O1 (centres unmarked) [Etifoxine] | does not blunt an increase in salivary cortisol levels | – |
| CC(=O)[C@H]1CC[C@H]2[C@@H]3CC[C@H]4C[C@H](O)CC[C@]4(C)[C@H]3CC[C@]12C [allopregnanolone] | – | less than 5% |
